A word on the IC50: it is the midpoint of a concentration-inhibition curve. For orientation: Ki means the equilibrium dissociation constant of an inhibitor or competing ligand from its target.

In experiment [1] the test system is A549 cells. Nature of the experiment: Inhibition of tumor cell growth method (b), CellTiter-Glo. The format is cell-based. The settings on record: Homo sapiens, A549, 72 h. An excerpt:
(§1) CellTiter-Glo® Luminescent Cell Viability Assay (Promega) is a homogeneous method of determining the number of viable cells in culture based on quantitation of the present ATP, which indicates the presence of metabolically active cells. The homogeneous assay procedure involves addition of a single reagent (CellTiter-Glo® Reagent) directly to the cells, which leads to cell lysis and generation of a luminescent signal proportional to the amount of the ATP and the number of cells present in culture. The assay relies on the properties of a proprietary thermostable luciferase (Ultra-Glo® recombinant luciferase), which generates a luminescent signal.
(§2) After 72 h, a volume of CellTiter-Glo® Reagent equal to the volume of cell culture medium was added. The content was mixed for 2 min to induce cell lysis. The luminescence was recorded after further 10 min at RT in order to obtain a stable luminescent signal.
(§3) The IC50 was calculated using GraphPad Software.
(ATP-based viability assays read luminescence as a measure of living cells.)

For experiment [2], the system named is H1975. The description is as above. The conditions noted are these: Homo sapiens, NCI-H1975, H1975, 72 h. The format is cell-based.
Source text: as §1, §2, §3

Experiment [3] concerns the target T1, hLDH5 (LDH-A) (Homo sapiens, UniProt P00338).
T1 construct: purchased LEEBIO (USA)
Nature of the experiment: Enzyme inhibition of human lactate dehydrogenase isoform 5. The experiment is classed as biochemical. The settings on record: ranges of values, pH 7.4; for Ki: 37° C., read-out: inhibitory activity against hLDH5 (Ki); for IC50: room temperature, read-out: inhibitory activity against hLDH5 (IC50). The method, then: The compounds described in the examples were evaluated in enzymatic assays to assess its inhibitory properties against two human isoforms of lactate dehydrogenase, hLDH5 containing solely the subunit LDH-A (LEEBIO—USA), and the hLDH1 containing only the LDH subunits-B (Sigma Aldrich, USA), in order to verify the selectivity of these compounds.
(for Ki measurements). Such assays were conducted in cells containing 200 μL of a solution comprising the reagents dissolved in phosphate buffer (KH2PO4 and K2HPO4) at pH 7.4.
IC50 values were calculated as described below. […] Seven different concentrations (in duplicate for each concentration) of compound were used to generate a concentration-response curve. […] Compound solutions were dispensed in 96-well plates (8 μL), then substrate and cofactor dissolved in buffer (152 μl) and enzyme solution (40 μl) were finally added. Dilution of the enzyme stock solution was made to allow a 10% consumption of the cofactor after 15 min. The eventual background fluorescence of the tested compounds or quenching of the NADH fluorescence by the tested compounds was subtracted. In addition to the compound test wells, each plate contained maximum and minimum controls. Assay plates were incubated at room temperature for 15 min and the final measurements were performed using Victor X3 Microplates reader (PerkinElmer®) at a fluorescence emission wavelength of 460 nm (excitation at 340 nm). IC50 were generated using the curve-fitting tool of GraphPad Prism].
The resulting data of enzymatic kinetic (the constants of Michaelis-Menten) were determined by analysis of non-linear regression.

For experiment [4], the system named is HeLa cells. Nature of the experiment: Determination of cellular production of lactate (GC/MS). The format is cell-based. The settings on record: 8 hours, concentrations from 50 to 200 μM, comparable or superior to 2-DeoxGlu at 10 mM.

With `COC(=O)c1cc2c(C(F)(F)F)cc(-c3cccc(OC(F)(F)F)c3)cc2n1O` [Example 19, methyl 1-hydroxy-4-(trifluoromethyl)-6-(3-(trifluoromethoxy)phenyl)-1H-indole-2-carboxylate], the IC50 in experiment [1] and in experiment [2] was at most 31 µM throughout. The Ki in experiment [3] was 1 to 10 µM.
Regarding `COC(=O)c1cc2c(C(F)(F)F)cc(-c3cc(Cl)cc(Cl)c3)cc2n1O` [Example 42, methyl 6-(3,5-dichlorophenyl)-1-hydroxy-4-(trifluoromethyl)-1H-indole-2-carboxylate], the IC50 in experiment [1] and in experiment [2] was at most 31 µM throughout. Also, the Ki in experiment [3] lay in the range of 1 to 10 µM.
For the compound `COC(=O)c1cc2c(C(F)(F)F)cc(-c3cccc(Cl)c3Cl)cc2n1O` [Example 36, methyl 6-(2,3-dichlorophenyl)-1-hydroxy-4-(trifluoromethyl)-1H-indole-2-carboxylate], the IC50 in experiment [1] and in experiment [2] was at most 31 µM in each case. In addition, the Ki in experiment [3] is 1 to 10 µM.
With `CC(C)OC(=O)c1cc2c(C(F)(F)F)cc(-c3ccccc3)cc2n1O` [Example 23, isopropyl 1-hydroxy-6-phenyl-4-(trifluoromethyl)-1H-indole-2-carboxylate], the “reduction of cellular production of lactate” value (from here on “reduction”) in experiment [4] is recorded as “reduce effectively cellular production of lactate”. Moreover, the IC50 in experiment [1] and in experiment [2] was at most 31 µM throughout. For the same compound, the Ki in experiment [3] was 1 to 10 µM.
As for `COC(=O)c1cc2c(F)cc(-c3ccc(Cl)cc3Cl)cc2n1O` [Example 53, methyl 6-(2,4-dichlorophenyl)-4-fluoro-1-hydroxy-1H-indole-2-carboxylate], the IC50 in experiment [1] and in experiment [2] was at most 31 µM in each case. For the same compound, in experiment [3], the Ki lay in the range of 5 to 25 µM.
As to `COC(=O)c1cc2c(C(F)(F)F)cc(-c3ccccc3)cc2n1O[C@@H]1O[C@H](CO)[C@H](O)[C@@H](O)[C@H]1O` [Example 40, methyl 1-(β-d-gulopyranosyl)oxy-6-phenyl-4-(trifluoromethyl)-1H-indole-2-carboxylate], the “reduction” value in experiment [4] is listed as “reduce effectively cellular production of lactate”.
For the compound `COC(=O)c1cc2c(C(F)(F)F)cc(-c3cc(Cl)ccc3Cl)cc2n1O` [Example 38, methyl 6-(2,5-dichlorophenyl)-1-hydroxy-4-(trifluoromethyl)-1H-indole-2-carboxylate], the IC50 in experiment [1] and in experiment [2] was at most 31 µM throughout. In addition, the Ki in experiment [3] is 5 to 25 µM.
As to `CCCCOC(=O)c1cc2c(C(F)(F)F)cc(-c3ccccc3)cc2n1O` [Example 22, butyl 1-hydroxy-6-phenyl-4-(trifluoromethyl)-1H-indole-2-carboxylate], the “reduction” value in experiment [4] is recorded as “reduce effectively cellular production of lactate”. The IC50 in experiment [1] and in experiment [2] was at most 31 µM throughout. The Ki in experiment [3] lay within 0.5 to 5 µM.
Turning to `O=C(O)c1cc2c(C(F)(F)F)cc(-c3ccccc3OC(F)(F)F)cc2n1O` [Example 35, 1-hydroxy-6-(2-(trifluoromethoxy)phenyl)-4-(trifluoromethyl)-1H-indole-2-carboxylic acid], the IC50 in experiment [1] and in experiment [2] was at most 31 µM each time. Moreover, the Ki in experiment [3] was 5 to 25 µM.
On to `CCCCOC(=O)c1cc2c(C(F)(F)F)cc(-c3ccc(Cl)cc3Cl)cc2n1O` [Example 33, butyl 6-(2,4-dichlorophenyl)-1-hydroxy-4-(trifluoromethyl)-1H-indole-2-carboxylate], for which the “reduction” value in experiment [4] was “reduce effectively cellular production of lactate”. In addition, in experiment [3], the IC50 was 0.01 to 1 µM.
`CC(C)OC(=O)c1cc2c(C(F)(F)F)cc(-c3ccc(Cl)cc3Cl)cc2n1O` [Example 32, isopropyl 6-(2,4-dichlorophenyl)-1-hydroxy-4-(trifluoromethyl)-1H-indole-2-carboxylate]: the “reduction” value in experiment [4] is listed as “reduce effectively cellular production of lactate”. In addition, the half-inhibitory concentration (IC50) in experiment [1] and in experiment [2] was at most 31 µM throughout. Moreover, the Ki in experiment [3] lay in the range of 0.5 to 5 µM.
`O=C(O)c1cc2c(C(F)(F)F)cc(-c3cccc(OC(F)(F)F)c3)cc2n1O` [Example 25, 1-hydroxy-4-(trifluoromethyl)-6-(3-(trifluoromethoxy)phenyl)-1H-indole-2-carboxylic acid] showed an IC50 in experiment [1] of at most 31 µM. In experiment [3], the Ki fell in the range of 1 to 10 µM.
In the case of `CC(C)OC(=O)c1cc2c(C(F)(F)F)cc(-c3ccccc3)cc2n1O[C@@H]1O[C@H](CO)[C@@H](O)[C@H](O)[C@H]1O` [Example 31, isopropyl 1-(β-D-glucopyranosyl)oxy-6-phenyl-4-(trifluoromethyl)-1H-indole-2-carboxylate], the “reduction” value in experiment [4] is “reduce effectively cellular production of lactate”. Moreover, in experiment [3], the IC50 is 50 to 500 µM.
`O=C(OCc1ccc([N+](=O)[O-])cc1)c1cc2c(C(F)(F)F)cc(-c3ccc(Cl)cc3Cl)cc2n1O` [Example 61, 4-nitrobenzyl 6-(2,4-dichlorophenyl)-1-hydroxy-4-(trifluoromethyl)-1H-indole-2-carboxylate]: the 50% inhibitory concentration (IC50) in experiment [3] was in the range of 0.01 to 1 µM.
With `CC(=O)OC[C@H]1O[C@@H](On2c(C(=O)OC(C)C)cc3c(C(F)(F)F)cc(-c4ccc(Cl)cc4Cl)cc32)[C@H](OC(C)=O)[C@@H](OC(C)=O)[C@@H]1OC(C)=O` [Example 44, isopropyl 6-(2,4-dichlorophenyl)-1-(β-d-2,3,4,6-tetra-O-acetylglucopyranosyl)oxy-4-(trifluoromethyl)-1H-indole-2-carboxylate], in experiment [3], the IC50 was above 100 µM.
Regarding `O=C(O)c1cc2c(C(F)(F)F)cc(-c3cc(Cl)cc(Cl)c3)cc2n1O` [Example 43, 6-(3,5-dichlorophenyl)-1-hydroxy-4-(trifluoromethyl)-1H-indole-2-carboxylic acid], the IC50 in experiment [1] is at most 31 µM. In experiment [3], the Ki lay in the range of 1 to 10 µM.
Consider `O=C(O)c1cc2c(C(F)(F)F)cc(-c3cccc(Cl)c3Cl)cc2n1O` [Example 37, 6-(2,3-dichlorophenyl)-1-hydroxy-4-(trifluoromethyl)-1H-indole-2-carboxylic acid], for which the Ki in experiment [3] lay in the range of 1 to 10 µM.
Regarding `COC(=O)c1cc2c(C(F)(F)F)cc(-c3ccccc3OC(F)(F)F)cc2n1O` [Example 34, methyl 1-hydroxy-6-(2-(trifluoromethoxy)phenyl)-4-(trifluoromethyl)-1H-indole-2-carboxylate], the IC50 in experiment [1] and in experiment [2] was at most 31 µM each time. Also, the Ki in experiment [3] was in the range of 5 to 25 µM.
In the case of `O=C(OCc1ccccc1)c1cc2c(C(F)(F)F)cc(-c3ccc(Cl)cc3Cl)cc2n1O` [Example 55, benzyl 6-(2,4-dichlorophenyl)-1-hydroxy-4-(trifluoromethyl)-1H-indole-2-carboxylate], the IC50 in experiment [3] lay within 0.01 to 1 µM.
Consider `CCCCOC(=O)c1cc2c(C(F)(F)F)cc(-c3ccc(Cl)cc3Cl)cc2n1O[C@@H]1O[C@H](COC(C)=O)[C@@H](OC(C)=O)[C@H](OC(C)=O)[C@H]1OC(C)=O` [Example 46, butyl 6-(2,4-dichlorophenyl)-1-(β-d-2,3,4,6-tetra-O-acetylglucopyranosyl)oxy-4-(trifluoromethyl)-1H-indole-2-carboxylate], for which the concentration for half-maximal inhibition (IC50) in experiment [3] is above 100 µM.
In the case of `O=C(OCc1ccccc1)c1cc2c(C(F)(F)F)cc(-c3ccccc3)cc2n1O` [Example 48, benzyl 1-hydroxy-6-phenyl-4-(trifluoromethyl)-1H-indole-2-carboxylate], the IC50 in experiment [1] and in experiment [2] was at most 31 µM throughout. The Ki in experiment [3] lay within 0.5 to 5 µM.
Consider `COC(=O)c1cc2c(C(F)(F)F)cc(-c3ccc(Cl)c(Cl)c3)cc2n1O` [Example 21, methyl 6-(3,4-dichlorophenyl)-1-hydroxy-4-(trifluoromethyl)-1H-indole-2-carboxylate], for which the IC50 in experiment [3] is above 100 µM.
Take `COC(=O)c1cc2c(C(F)(F)F)cc(-c3ccccc3)cc2n1O[C@H]1O[C@H](CO)[C@@H](O)[C@H](O)[C@@H]1O` [Example 41, methyl 1-(α-d-mannopyranosyl)oxy-6-phenyl-4-(trifluoromethyl)-1H-indole-2-carboxylate]: the “reduction” value in experiment [4] is listed as “reduce effectively cellular production of lactate”.
On to `COC(=O)c1c(C)c2c(C(F)(F)F)cc(-c3ccc(Cl)cc3Cl)cc2n1O` [Example 20, methyl 6-(2,4-dichlorophenyl)-1-hydroxy-3-methyl-4-(trifluoromethyl)-1H-indole-2-carboxylate], for which the IC50 in experiment [3] lay within 1 to 10 µM.

These data come from US20140343001A1, “INDOLE DERIVATIVES INHIBITORS OF ENZYME LACTATE DEHYDROGENASE (LDH)” (Universitá di Pisa, priority 2011, published 2014).
